Measurements from publication PMC9500498 (Circulation research, 2021).
Each block holds one molecule with its values, some of them ahead of it. Peptide text beside a SMILES is read from it.

Tests used:
[1] = molecular target: T1, CaMKIIδ-T287D (Homo sapiens, UniProt Q13557, T287D); test: CaMKIIδ-T287D-catalyzed phosphorylation of biotin-ahx-PLN; format: biochemical; conditions: biotin-ahx-PLN (1–30) as substrate, vs scrambled control peptide, n=7
[2] = system: pThr17-PLN; format: cell-based; conditions: neonatal rat cardiomyocytes; Suppl. Fig. 6a–b
[3] = system: CaMKIIδ-T287A; test: CaMKIIδ-catalyzed phosphorylation of Thr17-PLN at 0.5 μM Ca2+, immunoblot; format: biochemical; conditions: 0.5 μM free Ca2+
[4] = system: CaMKIIδ; test: Overlay of 20-mer overlapping CaMKIIδ peptide arrays with biotinylated peptide; format: binding; conditions: 20-mer overlapping CaMKIIδ peptides on membranes
[5] = system: cardiomyocytes
[6] = system: CaMKIIδ-T287A; test: Immunoprecipitation of CaM with CaMKIIδ-T287A; format: binding; conditions: immunoprecipitation in the presence of CaM, n=15
[7] = system: CaMKIIδ-T287A; test: In vitro CaMKII kinase assay; format: biochemical; conditions: CaM omitted; 32P incorporation into syntide, n=6
[8] = molecular target: T1, CaMKIIδ-T287D; test: In vitro CaMKII kinase assay; format: biochemical; conditions: 32P incorporation into syntide; compared among AKAP18δ-N sequences
[9] = molecular target: T2, CaM (Homo sapiens, UniProt P0DP23); test: CaM-agarose precipitation in the presence of Ca2+, immunoblot; format: binding; conditions: Suppl. Fig. 4b–c
[10] = molecular target: T2, CaM; test: SPR of immobilized biotin-ahx-AKAP18δ; format: binding
[11] = molecular target: T1, CaMKIIδ-T287D; conditions: compared with AKAP18δ-N (55–98), Suppl. Fig. 2j–k
[12] = system: Ca^2+/CaM; test: ELISA-based binding of biotinylated peptide to CaM-coated wells; conditions: biotinylated peptide vs scrambled control, n=6

T1 sequence (Q13557 whole entry T287D): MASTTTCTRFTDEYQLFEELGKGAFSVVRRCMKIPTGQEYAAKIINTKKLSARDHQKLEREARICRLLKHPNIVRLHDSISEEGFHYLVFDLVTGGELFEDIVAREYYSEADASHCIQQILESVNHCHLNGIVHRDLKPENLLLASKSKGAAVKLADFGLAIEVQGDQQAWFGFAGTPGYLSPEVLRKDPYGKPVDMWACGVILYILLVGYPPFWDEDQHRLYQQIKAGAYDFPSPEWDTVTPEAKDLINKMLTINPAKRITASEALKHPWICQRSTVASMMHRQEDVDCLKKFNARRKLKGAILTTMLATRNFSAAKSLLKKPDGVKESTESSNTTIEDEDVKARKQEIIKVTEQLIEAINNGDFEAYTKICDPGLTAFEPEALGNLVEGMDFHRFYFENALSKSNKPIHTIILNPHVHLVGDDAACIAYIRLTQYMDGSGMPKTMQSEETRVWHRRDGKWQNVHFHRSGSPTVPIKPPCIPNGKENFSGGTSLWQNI

SMILES: CC[C@H](C)[C@H](NC(=O)[C@@H]1CCCN1C(=O)[C@@H](NC(=O)[C@H](CO)NC(=O)[C@H](CC(C)C)NC(=O)[C@H](Cc1ccccc1)NC(=O)[C@H](Cc1ccc(O)cc1)NC(=O)[C@H](CC(N)=O)NC(=O)[C@@H]1CCCN1C(=O)[C@H](CCC(N)=O)NC(=O)[C@H](Cc1ccc(O)cc1)NC(=O)[C@H](CC(=O)O)NC(=O)[C@H](CCCCN)NC(=O)[C@H](CCCCN)NC(=O)[C@H](C)NC(=O)[C@H](CCCCN)NC(=O)[C@H](CCCCN)NC(=O)[C@H](CCCNC(=N)N)NC(=O)[C@H](CCCCN)NC(=O)[C@H](CCCCN)NC(=O)[C@@H](NC(=O)[C@H](Cc1c[nH]cn1)NC(=O)[C@H](CC(=O)O)NC(=O)[C@H](CC(N)=O)NC(=O)[C@H](CCCNC(=N)N)NC(=O)[C@H](CC(=O)O)NC(=O)CNC(=O)[C@H](CCCNC(=N)N)NC(=O)[C@H](CC(N)=O)NC(=O)[C@H](CCC(=O)O)NC(=O)[C@H](CCCCN)NC(=O)[C@H](CO)NC(=O)[C@H](CCCNC(=N)N)NC(=O)[C@H](CCCCN)NC(=O)[C@@H]1CCCN1C(=O)[C@H](CC(N)=O)NC(=O)CNC(=O)[C@H](CCC(N)=O)NC(=O)[C@@H]1CCCN1C(=O)[C@@H](NC(=O)[C@H](CC(N)=O)NC(=O)CNC(=O)[C@H](CCC(N)=O)NC(=O)[C@@H]1CCCN1)C(C)C)C(C)C)[C@@H](C)CC)C(=O)O [AKAP18δ-N (55–98)]
CaMKIIδ-T287D-catalyzed phosphorylation of Thr17 in PLN [1]: reduced

CaMKIIδ binding on peptide arrays [4]: too weak or dynamic to be detected | substrate phosphorylation by CaMKIIδ-T287A [7]: increased substrate phosphorylation
SMILES: CC[C@H](C)[C@H](NC(=O)[C@H](CCC(N)=O)NC(=O)[C@H](Cc1ccc(O)cc1)NC(=O)[C@H](CC(C)C)NC(=O)[C@@H](NC(=O)[C@H](CCC(=O)O)NC(=O)[C@H](CCC(=O)O)NC(=O)CNC(=O)[C@H](Cc1ccccc1)NC(=O)[C@H](CCCNC(=N)N)NC(=O)[C@H](Cc1c[nH]cn1)NC(=O)[C@H](CC(=O)O)NC(=O)[C@@H](NC(=O)[C@H](Cc1ccccc1)NC(=O)[C@H](CCC(N)=O)NC(=O)[C@H](CCC(=O)O)NC(=O)[C@H](Cc1ccc(O)cc1)NC(=O)[C@H](CC(C)C)NC(=O)CNC(=O)[C@@H]1CCCN1C(=O)[C@H](CCC(=O)O)NC(=O)[C@@H](NC(=O)[C@H](CCCCN)NC(=O)[C@H](CCCNC(=N)N)NC(=O)[C@@H](NC(=O)CNC(=O)[C@H](CCCCN)NC(=O)[C@@H](N)CCCCN)C(C)C)[C@@H](C)CC)[C@@H](C)CC)[C@@H](C)CC)C(=O)N[C@@H](CC(=O)O)C(=O)O [AKAP18δ-C]
pThr17-PLN level [2]: augmented | Thr17-PLN phosphorylation by CaMKIIδ-T287A [3]: further increased Thr17-PLN phosphorylation in the presence of either AKAP18δ-C (tendency) | cytotoxicity (and changes at basal level) [5]: No cytotoxicity | trapping of CaM to CaMKIIδ-T287A [6]: induced trapping of CaM

effect on CaMKIIδ-T287D activity (in words) [8]: inhibitory | precipitation with CaM-agarose [9]: precipitated with CaM-agarose | kon ([10]; read-out: association rate constant (ka)): 130 M⁻¹ s⁻¹ | koff ([10]; read-out: dissociation rate constant (kd)): 0.00053 s⁻¹ | SPR binding to CaMKIIδ-T287D (in words) [11]: bound strongly | CaM binding, ELISA-based assay [12]: confirmed
SMILES: CC[C@H](C)[C@H](NC(=O)[C@@H]1CCCN1C(=O)[C@@H](NC(=O)[C@H](CO)NC(=O)[C@H](CC(C)C)NC(=O)[C@H](Cc1ccccc1)NC(=O)[C@H](Cc1ccc(O)cc1)NC(=O)[C@H](CC(N)=O)NC(=O)[C@@H]1CCCN1C(=O)[C@H](CCC(N)=O)NC(=O)[C@H](Cc1ccc(O)cc1)NC(=O)[C@H](CC(=O)O)NC(=O)[C@H](CCCCN)NC(=O)[C@H](CCCCN)NC(=O)[C@H](C)NC(=O)[C@H](CCCCN)NC(=O)[C@H](CCCCN)NC(=O)[C@H](CCCNC(=N)N)NC(=O)[C@H](CCCCN)NC(=O)[C@@H](N)CCCCN)[C@@H](C)CC)C(=O)O [AKAP18δ-N (79–98)] (H-KKRKKAKKDYQPNYFLSIPI-OH; N-terminus and C-terminus assumed)
